According to patent US6592910B1, “Methods of treating clinical diseases with isoflavones” (Board of Trustees, Southern Illinois University, priority 1999, dated 2003):
Marks after values point to notes of the source that are not given here.

Legend:
[1] = test system: male Sprague-Dawley rats; assay: Feed and weight measurements in male Sprague-Dawley rats injected for 6 weeks; assay type: in vivo, rat; conditions: for Fat Weight: visceral fat
Experimental: (§1) Forty male Sprague-Dawley rats (5 wk old, n=9-10 rats/treatment, from Harlan Sprague-Dawley, Inc., Indianapolis, Ind.) were injected with either genistein (G), daidzein (D), estradiol (E), or a vehicle control (V). Each animal in group V received a daily 0.1 cc subcutaneous injection, for six weeks, of a 10% ethanol-90% olive oil solution; the other treatments received their respective compound as a daily 0.1 cc subcutaneous injection, for six weeks, e.g., 0.1 μg of compound/g of body weight, in a 10% ethanol-90% olive oil solution.
Animal weight and feed intake were measured weekly during the six week study, and the subsequent feed-efficiency ratio [FER (g of weight change/g of feed intake)] was determined. Following sacrifice, the abdominal fat pads, liver, and reproductive organs were removed and weighed for comparison.
(§2) These studies used a randomized design. All data were analyzed by one-way analysis of variance (ANOVA) and post-hoc comparisons were made with Tukey pairwise comparisons test. Significance was confirmed at P≦0.05 (SYSTAT 7.0, SPSS INC., 1997), and all values are reported as means±standard error of the mean.

[2] = test system: male Sprague-Dawley rats; assay: Liver weight, cholesterol and triglyceride in male Sprague-Dawley rats injected for 6 weeks; assay type: in vivo, rat; conditions: for Liver total triglycerides: as triolein; for Liver total triglycerides / Liver cholesteryl esters / Liver total cholesterol / Liver unesterified cholesterol / Liver weight: daily s.c. injection, 6 weeks; for liver weight as a % of body weight, compared with V: rat, in vivo
Experimental: (§3) Forty male Sprague-Dawley rats (5 wk old, n=9-10 rats/treatment, from Harlan Sprague-Dawley, Inc., Indianapolis, Ind.) were injected with either genistein (G), daidzein (D), estradiol (E), or a vehicle control (V). Each animal in group V received a daily 0.1 cc subcutaneous injection, for six weeks, of a 10% ethanol-90% olive oil solution; the other treatments received their respective compound as a daily 0.1 cc subcutaneous injection, for six weeks, e.g., 0.1 μg of compound/g of body weight, in a 10% ethanol-90% olive oil solution. Animal weight and feed intake were measured weekly during the six week study, and the subsequent feed-efficiency ratio [FER (g of weight change/g of feed intake)] was determined. Following sacrifice, the abdominal fat pads, liver, and reproductive organs were removed and weighed for comparison. Collected blood was heparinized and centrifuged, plasma aliquots were then used for glucose and total cholesterol determinations, using standard glucose oxidase (Fisher Scientific, St. Louis, Mo.) and cholesterol kits (Fisher Scientific, St. Louis, Mo.). Liver cholesterol and triglyceride analysis. Analytical procedures for determination of liver total cholesterol, unesterified cholesterol, cholesteryl ester, and triglyceride concentrations were as described in Example 1. These studies used a randomized design. All data were analyzed by one-way analysis of variance (ANOVA) and post-hoc comparisons were made with Tukey pairwise comparisons test. Significance was confirmed at P≦0.05 (SYSTAT 7.0, SPSS INC., 1997), and all values are reported as means±standard error of the mean.

[3] = test system: Cu,Zn superoxide Dimutase (SOD); assay: Liver Cu,Zn superoxide dimutase activity in injected rats; assay type: in vivo, rat; conditions: daily s.c. injection, 6 weeks; P<0.05
Experimental: as §1
The activity or level of antioxidant enzymes (AOE), catalase (CAT) and Cu,Zn superoxide Dimutase (SOD) in rat liver, were measured to determine the effect of administration of G, D, and E injections on free radical defense systems. A 50 mg piece of whole frozen liver was removed and sonicated in TBS plus 1% Triton X-100. The samples were then centrifuged at 13,000×g for 25 min at 4° C., and the supernatant was collected. Total protein concentration was assayed for subsequent determinations of hepatic AOE activity or absolute level per milligram total protein. SOD activity was determined by spectrophotometry at I=560 nm using xanthine/xanthine oxidase as a superoxide generator and measured against a standard curve of known SOD activities (Sun et al. 1988, 1994). Catalase levels were determined bv Slot blot, which was performed following a representative Western blot that detected no nonspecific binding (Tobin et al. 1979). The bands corresponding to catalase were quantified by densitometry.
as §2

[4] = test system: male Sprague-Dawley rats; assay: Plasma glucose and plasma total cholesterol in male Sprague-Dawley rats injected for 6 weeks; assay type: in vivo, rat; conditions: 6 weeks injection
Experimental: as §3, with “solution.” for “solution. Animal weight and feed intake were measured weekly during the six week study, and the subsequent feed-efficiency ratio [FER (g of weight change/g of feed intake)] was determined. Following sacrifice, the abdominal fat pads, liver, and reproductive organs were removed and weighed for comparison.”

[5] = test system: stenotic arteries of female macaques; conditions: intravenous infusion; cited from earlier work

SMILES | Body Weight ([1]; daily s.c. injection, 6 weeks) | Fat Weight ([1]; daily s.c. injection, 6 weeks) | Liver triglyceride concentrations compared to the E treatment ([2]; P<0.05) | Liver weights vs the V group ([2]; P<0.05) | Liver total triglycerides [2] | Liver cholesteryl esters [2] | Liver total cholesterol [2] | Liver unesterified cholesterol [2] | Liver weight [2] | liver weight as a % of body weight, compared with V [2] | elevation of liver SOD activity over vehicle controls [3] | Body, testis, and prostate weight compared to D, G, and V treated animals ([1]; rat, in vivo) | Prostate Weight ([1]; daily s.c. injection, 6 weeks) | Testis Weight ([1]; daily s.c. injection, 6 weeks) | plasma cholesterol levels vs the V group [4] | vasoconstriction in stenotic arteries [5]
O=c1c(-c2ccc(O)cc2)coc2cc(O)ccc12 [D, daidzein] | 367.89 g | 11.66 g | significantly (P<0.05) lower | considerably (P<0.05) lower | 17.980 μmol/g liver | 3.114 μmol/g liver | 5.678 μmol/g liver | 2.563 μmol/g liver | 12.857^a g | reduction in relative liver mass | approximately 33% |  |  |  |  | 
C[C@]12CC[C@@H]3c4ccc(O)cc4CC[C@H]3[C@@H]1CC[C@@H]2O [E, estradiol, reference compound] | 242.50^a,b,c g | 6.71^a,b,c g |  |  | 32.186^c μmol/g liver | 4.104^a,b μmol/g liver | 6.722^a,b,c μmol/g liver | 2.618 μmol/g liver | 10.487^a,b,c g |  | approximately 33% | markedly (P<0.05) lower |  |  |  | 
O=c1c(-c2ccc(O)cc2)coc2cc(O)cc(O)c12 [G, genistein] | 363.00 g | 11.19 g |  | considerably (P<0.05) lower | 29.528 μmol/g liver | 2.589 μmol/g liver | 5.189 μmol/g liver | 2.600 μmol/g liver | 12.970^a g | reduction in relative liver mass | 15% |  | .732 g | 2.90 g | non-significant trend (P<0.5) toward lower | rapid inhibition
